This note sets out measurements from patent US5914329A, “Dimesylate salts of neuropeptide Y ligands” (Pfizer Inc., priority 1997, dated 1999).

The nature of one data set: Chemical stability. The format is physicochemical.
A short description of data set [1]: Aqueous solubility of salts.
Data set [2] in a line: Bioavailability (species not stated). The conditions noted are these: in words.
Data set [3] can be described thus: Hygroscopicity evaluation at high humidities. The format is physicochemical. To be noted: humidities below 90%.

Counter-ions that a name gives are not always drawn.

Consider `CCOc1cccc(C2(N3CCN(c4ccccc4)CC3)CCC(C)CC2)c1` (stereo not drawn) [compound I, dimesylate salt of cis-1-(3-ethoxyphenyl)-1-(4-phenylpiperazin-1-yl)-4-methyl-cyclohexane], for which the stability result in “Chemical stability” (in words) is given as “good”. Besides, in data set [1] (solubility, dimesylate salt, medium not stated), the solubility is 31 mg/mL. Further, the bioavailability result in data set [2] was “good”.
On to `CCOc1cccc(C2(N3CCN(c4ccccc4)CC3)CCC(C)CC2)c1` (stereo not drawn) [form A, Dimesylate salt of cis-1-(3-ethoxyphenyl)-1-(4-phenylpiperazin-1-yl)-4-methylcyclohexane], for which the Chemical stability result is on record as “no detectable degradation” in “Chemical stability” (40° C. in 75% RH); “no detectable degradation” in “Chemical stability” (70° C., at ambient humidity); “no detectable degradation” in “Chemical stability” (light box under fluorescent light). In data set [1] (water, Aqueous solubility, isolated form A of the dimesylate salt), the solubility stood at 31 mg/mL. The hygroscopicity result in data set [3] was “non-hygroscopic”.
As to `CCOc1cccc(C2(N3CCN(c4ccccc4)CC3)CCC(C)CC2)c1` (stereo not drawn) [fumarate salt, cis-1-(3-ethoxyphenyl)-1-(4-phenylpiperazin-1-yl)-4-methyl-cyclohexane, reference compound], the solubility in data set [1] (water, solubility in water, in water) came to 0.04 mg/mL.
In the data set “Bioavailability in dogs”, `CCOc1cccc(C2(N3CCN(c4ccccc4)CC3)CCC(C)CC2)c1` (stereo not drawn) [dihydrochloride, cis-1-(3-ethoxyphenyl)-1-(4-phenylpiperazin-1-yl)-4-methyl-cyclohexane, reference compound] gave a bioavailability in dogs of 75%. Besides, the “stability in the solid state” value in the data set “Chemical stability” (solid state, in words) is listed as “unstable”. Further, the solubility in data set [1] (water, water solubility) amounted to 1 mg/mL.

Broadly, the solubility is the dissolved amount per volume that the medium holds.
